Laboratory results taken from US20060241173A1, “Compound” (Sterix Ltd., priority 1996, published 2006).

Legend:
[1] = molecular target: T1, sulphatase (Rattus norvegicus, UniProt P15589); test: Oral dosing in rats: sulphatase activity in white blood cells; assay type: in vivo
T1 construct: from tissue; host or cells: rat white blood cells
T1 sequence (P15589 20-577): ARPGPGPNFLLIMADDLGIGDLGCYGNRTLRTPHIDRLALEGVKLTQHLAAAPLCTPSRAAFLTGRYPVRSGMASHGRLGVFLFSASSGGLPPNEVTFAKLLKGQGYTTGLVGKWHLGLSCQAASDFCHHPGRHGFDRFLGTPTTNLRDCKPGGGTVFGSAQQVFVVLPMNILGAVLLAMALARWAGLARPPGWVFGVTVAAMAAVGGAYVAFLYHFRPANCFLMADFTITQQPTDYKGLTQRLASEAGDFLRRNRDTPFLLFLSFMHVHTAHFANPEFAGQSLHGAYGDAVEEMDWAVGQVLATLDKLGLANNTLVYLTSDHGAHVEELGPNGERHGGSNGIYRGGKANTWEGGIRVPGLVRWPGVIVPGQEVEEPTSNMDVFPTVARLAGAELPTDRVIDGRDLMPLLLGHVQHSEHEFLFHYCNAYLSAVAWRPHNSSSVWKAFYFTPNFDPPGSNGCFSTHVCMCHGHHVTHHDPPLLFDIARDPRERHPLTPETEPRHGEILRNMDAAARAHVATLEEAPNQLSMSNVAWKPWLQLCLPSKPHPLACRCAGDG

[2] = molecular target: T2, E1-STS (Homo sapiens, UniProt P08842); test: Time- and concentration-dependent inactivation of oestrone sulphatase in placental microsomes; assay type: biochemical; set-up: from tissue; host or cells: placental microsomes (100,000 g fraction)
T2 sequence (P08842 22-583): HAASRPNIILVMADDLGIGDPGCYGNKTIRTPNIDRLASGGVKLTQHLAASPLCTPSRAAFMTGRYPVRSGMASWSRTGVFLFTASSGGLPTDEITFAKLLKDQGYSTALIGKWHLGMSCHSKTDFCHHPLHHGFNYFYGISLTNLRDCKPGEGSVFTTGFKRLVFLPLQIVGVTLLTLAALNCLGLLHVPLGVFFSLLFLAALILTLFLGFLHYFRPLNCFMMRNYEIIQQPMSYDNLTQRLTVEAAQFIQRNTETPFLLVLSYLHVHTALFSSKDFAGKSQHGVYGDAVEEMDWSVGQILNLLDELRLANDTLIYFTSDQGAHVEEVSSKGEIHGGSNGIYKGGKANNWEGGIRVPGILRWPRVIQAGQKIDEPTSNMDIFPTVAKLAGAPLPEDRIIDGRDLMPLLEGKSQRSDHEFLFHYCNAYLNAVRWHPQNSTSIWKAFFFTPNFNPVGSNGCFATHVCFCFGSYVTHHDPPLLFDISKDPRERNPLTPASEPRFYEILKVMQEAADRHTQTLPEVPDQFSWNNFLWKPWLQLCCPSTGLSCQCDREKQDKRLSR

[3] = tested on: uterine weight; test: Oestrogenic activity: uterine weight in ovariectomised rats; assay type: in vivo, rat; settings: 1 mg/kg subcutaneously for 5 days
[4] = molecular target: T3, E1-STS (Rattus norvegicus, UniProt P15589); test: Oral activity in rats (preliminary data); assay type: in vivo; set-up: The E1-STS activity in the uteri obtained from these animals; from tissue; host or cells: rat uterus
T3 sequence (P15589 20-577): T1 sequence (P15589 20-577)

Structure (SMILES): Cc1cc(=O)oc2cc(OS(N)(=O)=O)ccc12 [Compound 14]
- % Inhibition MD ([1]; oral daily for seven days 0.1 mg/kg): 65%
- % Inhibition MD ([1]; oral daily for seven days 1.0 mg/kg): 85%
- % Inhibition MD ([1]; oral daily for seven days 10.0 mg/kg): 89%
- % Inhibition SD ([1]; oral single dose 0.1 mg/kg): 72%
- % Inhibition SD ([1]; oral single dose 1.0 mg/kg): 85%
- % Inhibition SD ([1]; oral single dose 10.0 mg/kg): 96%
- Manner of E1-STS inhibition (in words) [2]: time- and concentration-dependent manner in a biphasic fashion
- Uterine weight (oestrogenic agonist properties) [3]: did not result in any significant increase in the uterine weight
- Oral activity in rats (in words) [4]: potent oral activity
